Assay results as given in patent publication US10253107B2, “Use of endocytosis inhibitors and antibodies for cancer therapy” (THE UNIVERSITY OF QUEENSLAND, priority 2012, dated 2019).
Entries after “also recorded” stand apart in the source; their conditions may differ. Read-outs that look alike come from different tables or passages of the source.

Columns and labels:
dynamin = conditions: cited from earlier work
A431 cells [1] = test: MHC class I and class II immunofluorescence in A431 cells; format: cell-based, human
Protocol: (§1) FIG. 23 is a photographic representation showing example panels for correlation between inhibited EGFR endocytosis and MHC class I and class II status. (A) Immunofluorescence showing manipulation of EGFR trafficking using a dynamin inhibitor. A431 cells were serum-starved for 3 hours and then treated with different concentrations of dynasore (0, 60 and 100 μM) for 0.5 and 24 hours. 15 minutes EGF-Alexa488 (100 ng/mL) uptakes were performed to monitor the trafficking of the ligand bound EGFRs (in green). The nuclei are shown in blue. (B) immunofluorescence showing changes in MHC class I and class II distributions caused by altered EGFR trafficking. A431 cells were treated with different concentrations of dynasore (0, 60 and 100 μM) for 0.5 hours, followed by fixation and permeabilization. MHC class I and class II were then labeled with primary antibodies PE-HLA-ABC and PE-HLA-DR, respectively, followed by secondary antibody labeling (Alexa 594). MHC I and II are shown in red while the nuclei are shown in blue.

HeLa cells [2] = conditions: dose dependent, previous study (23), read-out: IC50 of dynasore mediated endocytosis inhibition; cited from earlier work
[3] = system: EGFR endocytosis in A431 cells; test: EGF-Alexa488 uptake immunofluorescence (ligand-induced EGFR endocytosis); format: cell-based, human; conditions: 15 min EGF-Alexa488 uptake
Protocol: as §1
FIG. 29 is a photographic representation showing Dyngo4a inhibition of EGFR endocytosis. […] Immunofluorescence was conducted to confirm the manipulation of EGFR trafficking using Dyngo4a. A431 cells were serum-starved for 3 hours and then treated with different concentrations of (A) Dyngo4a (0 and 30 μM) for 30 min. […] The nuclei are shown in blue. […]

A431 cells [4] = test: Dynasore 24 hour treatment, A431 cells; format: cell-based, human
Protocol: as §1

HeLa cells [5] = test: Dynasore 24 hour treatment, HeLa cells; format: cell-based
A431 cells [6] = test: Cetuximab mediated ADCC MTS assay; format: cell-based, human; conditions: Dyngo4a 30 μM + cetuximab 60 μg/mL + PBMC, vs cetuximab single treatment
Protocol: MTS assays were performed to measure absorbance at 490 nm. The cell viability is presented as the percentage of untreated viable cells. […] (B-I) MTS assays were performed to measure absorbance at 490 nm. (B-II) The target cell viability is presented as the percentage of untreated viable cells and calculated following the formula: % of untreated cells=(experimental OD−PBMC OD)/(A431 maximum OD−medium OD)×100%
Target cells (A431, number=2,500 per well) were seeded in 96-well round bottom plates and allowed to settle down for 2 hours. […] After 24 hours incubation, 20 μL MTS reagent was added into each well and incubated at 37° C. in 5% CO2 for 2 hours. The optical density (OD value) was read at 490 nm by a microplate spectrophotometer.

A431 cells [7] = test: Immunofluorescence of cetuximab-EGFR internalization, A431; format: cell-based, human; conditions: 4-hour time-course, Dyngo4a added
Protocol: (§2) A431 cells were seeded on coverslips in 12-well plates and incubated overnight to reach 80% confluence. […] 30 μM dyngo4a was added at given time points as described in figure legends. The cells were then washed three times in ice cold PBS and fixed in 4% PFA/PBS for 30 minutes, followed by permeabilization in 0.1% TritonX/PBS (PBTX) for 20 minutes. […] The coverslips were mounted on slides in Prolong Gold (Life technologies). Images were acquired using a Zeiss 510 Meta confocal with a 63× objective.

KJD cells [8] = test: MTS/MTT toxicity assay in the absence of PBMC, KJD; format: cell-based; conditions: absence of PBMC/ADCC, single agent or with cetuximab
Protocol: (§3) FIG. 30 is a graphical representation of a multi-parametric FACS analysis showing that manipulation of EGFR trafficking with dynamin inhibitors, Dyngo4a and Pyrimidyn-7, results in enhanced ADCC in cetuximab-sensitive and insensitive cells. cetuximab-dependent ADCC assays were performed essentially according to the procedures outlined in FIGS. 27 and 28. […] (C) Percentage of specific KJD cell death is shown in the presence of dynamin inhibitors only. […] (E) An MTS assay was conducted in the absence of PBMC to assess toxicity of compounds in the absence of ADCC. […] Triton X100 is added as a control for maximum cell death. (F) An MTS assay was conducted in the absence of PBMC to assess toxicity of compounds in the absence of ADCC. […] Triton X100 is added as a control for maximum cell death. (G) An MTS assay was conducted to assess possible toxicity of dynamin inhibitors to PBMC cells. […] Triton X100 is added as a control for maximum cell death.
(§4) Compounds Dyngo4a and Pyrimidyn-7 were tested in both multi-variant FACS analysis assay as described in Example 4 and by MTT assay. In particular, compounds were tested for improvement of cetuximab-dependent ADCC against cetuximab-sensitive A431 cells and cetuximab-resistant KJD cells and for single agent toxicity.

A431 cells [9] = test: Flow cytometry-based ADCC assay on A431 cells; format: cell-based, human; conditions: FACS; for effect of dynamin inhibitor on cetuximab-dependent ADCC of A431 cells: inhibitor + cetuximab + PBMC
Protocol: Flow cytometry was performed on triplicate tubes per treatment. Target cells were harvested and labeled with 0.5 μM CFSE (Life technologies) for 10 minutes, followed by washing to remove excess dye. […] 30 μM Dyngo4a was added at given time points as described in figure legends. After the incubation, 5 ul of 7-AAD (BD Pharmingen) was added into each tube to indicate the target cells that were killed. Samples were analyzed by flow cytometry (BD FACSCanto). The percentage of specific target cell death was calculated using the following formula:

A431 cells [10] = test: MTS/MTT toxicity assay in the absence of PBMC, A431; format: cell-based
Protocol: as §3, §4

KJD cells [11] = test: Immunofluorescence of cetuximab-EGFR trafficking, KJD; format: cell-based, human; conditions: incubation with Dyngo4a
Protocol: FIG. 28 is a photographic and graphical representation of a multi-parametric FACS analysis showing that manipulation of EGFR trafficking with dynamin inhibitors results in improved ADCC in cetuximab-insensitive cells. (A) Immunofluorescence imaging of cetuximab trafficking status in KJD cells. […] 7-AAD was added at the end of the 4-hour assay to label dead cells prior to FACS analysis. (B) Gating strategies used for the assessment of specific target cell death. FITC indicates CFSE while PerCP-Cy5.5 indicates 7-AAD. The dead target cells appear in the upper right quadrant, CFSE painted and 7-AAD positive. (C.1) KJD cell death under different conditions. (C.2) The percentage of specific KJD cell death was calculated. Data shown are an average of 3 experiments+/−SEM by Two-Way ANOVA with Bonferroni post test. ****: P≤0.0001; ***: P≤0.001; **: P≤0.01; *: P≤0.05. ns: no significance.
as §2

KJD cells [12] = test: Flow cytometry-based ADCC assay on KJD cells; format: cell-based, human; conditions: for effect of dynamin inhibitor on cetuximab-dependent ADCC of KJD cells: inhibitor + cetuximab + PBMC
Protocol: Flow cytometry was performed on triplicate tubes per treatment. Target cells were harvested and labeled with 0.5 μM CFSE (Life technologies) for 10 minutes, followed by washing to remove excess dye. […] 30 μM Dyngo4a was added at given time points as described in figure legends. After the incubation, 5 ul of 7-AAD (BD Pharmingen) was added into each tube to indicate the target cells that were killed. Samples were analyzed by flow cytometry (BD FACSCanto).

PBMC = test: MTS/MTT toxicity of dynamin inhibitors to PBMC; format: cell-based; conditions: for toxicity to PBMC: MTS/MTT, single agent
Protocol: Dyngo4a (0 and 30 μM) was added at the end of the incubation. 10% Triton was added to A431 cells after 24-hour incubation with PBMCs for cell death control. The ADCC effects were measured by MTS assay. The cell viability was presented as OD values at 490 nm. The average of OD values released from background was subtracted from effector cell controls (A-II) and target/effector tests (A-III).
as §3, §4

[13] = A431, dynasore 0, 60, 100 μM, 0.5 hours

SMILES: N#C/C(=C\c1ccc(O)c(O)c1)C(=O)NCCCNC(=O)/C(C#N)=C/c1ccc(O)c(O)c1 [Bis-T-22, 2-cyano-N-{3-[2-cyano-3-(3,4-dihydroxyphenyl)-acryloylamino]-propyl}-3-(3-,4-dihydroxyphenyl)-acrylamide]
- basal dynamin GTPase activity (dynamin; absence of PS liposomes, dynamin rings): stimulates basal dynamin GTPase activity
- inhibition of helical dynamin (dynamin; dynamin activated by phosphatidylserine (PS) liposomes): potent in vitro inhibitor of dynamin

SMILES: O=C(N/N=C/c1ccc(O)c(O)c1)c1cc2ccccc2cc1O [Dynasore, 3-hydroxynaphthalene-2-carboxylic acid (3,4-dihydroxybenzylidene) hydrazide]
- plasma membrane levels of MHCI (A431 cells [1]; A431, EGF stimulation coupled with dynasore inhibition): no longer detectable
- MHCI signal (A431 cells [1]; [13]): increasing MHCI signal
- MHCII signal (A431 cells [1]; [13]): decrease in MHCII signal
- IC50 (HeLa cells [2]): ~15 µM
- ligand-induced EGFR endocytosis [3]: successfully functioned as an endocytosis inhibitor
- cell morphology after 24 hours dynasore (A431 cells [4]): cellular nuclear condensation
- cell morphology after 24 hours dynasore (HeLa cells [5]): appeared apoptotic or to have cytokinetic defects

SMILES: O=C(N/N=C/c1cc(O)c(O)cc1O)c1cc2ccccc2cc1O [Dyngo-4a]
- cetuximab mediated ADCC in presence of dynamin inhibitor (cell viability, MTS) (A431 cells [6]): cells lost more viability
- surface and internalized levels of cetuximab (A431 cells [7]): increases surface levels of cetuximab and decreases internalized levels
- toxicity to KJD cells (KJD cells [8]): no toxicity as a single agent; also recorded: no significant toxicity on KJD cells
- effect of Dyngo4a on Herceptin-dependent ADCC of A431 cells (A431 cells [9]; Dyngo4a + Herceptin + PBMC): enhance both cetuximab-dependent and Herceptin-dependent ADCC
- effect of dynamin inhibitor on cetuximab-dependent ADCC of A431 cells (A431 cells [9]): increased level of cetuximab-induced ADCC; also recorded: improve cetuximab-dependent ADCC; also recorded: enhance both cetuximab-dependent and Herceptin-dependent ADCC
- toxicity to A431 cells (A431 cells [10]): no toxicity as a single agent
- toxicity to A431 cells (A431 cells [10]; human): no significant toxicity on A431 cells
- plasma membrane expression of EGFR (KJD cells [11]): increased the plasma membrane expression of EGFR
- cetuximab-induced ADCC with Dyngo4a, KJD cell killing (KJD cells [12]; Dyngo4a 30 μM + cetuximab 60 μg/mL + PBMC, 4 hours): greater than 40%
- effect of Dyngo4a on Herceptin-dependent ADCC of KJD cells (KJD cells [12]; Dyngo4a + Herceptin + PBMC, FACS): enhance Herceptin-dependent ADCC of KJD cells even more so
- tumor cell killing by inhibitor alone (KJD cells [12]; Dyngo4a alone, without cetuximab): did not kill tumor cells
- effect of dynamin inhibitor on cetuximab-dependent ADCC of KJD cells (KJD cells [12]; FACS): improve cetuximab-dependent ADCC; also recorded: enhance both cetuximab-dependent and Herceptin-dependent ADCC
- cell viability of PBMCs (effector cells) (PBMC; Dyngo4a alone and with cetuximab, MTS, vs negative and 10% Triton controls): did not cause large cell viability reduction in PBMCs
- toxicity to PBMC (PBMC): no toxicity as a single agent; also recorded: no significant toxicity
- ligand-induced EGFR endocytosis [3]: has an inhibitory effect on the ligand-induced EGFR endocytosis

SMILES: CCCCCCCCCCCCNc1cc(C)nc(NCCN(C)C)n1 [Pyrimidyn-7]
- toxicity to KJD cells (KJD cells [8]): showed single agent toxicity; also recorded: significant death of KJD cells
- effect of dynamin inhibitor on cetuximab-dependent ADCC of A431 cells (A431 cells [9]): improve cetuximab-dependent ADCC
- toxicity to A431 cells (A431 cells [10]; MTS/MTT, absence of PBMC/ADCC, single agent or with cetuximab): showed single agent toxicity; also recorded: significant death of A431 cells
- cell death by ADCC in the absence of cetuximab (KJD cells [12]; KJD cells (FIG. 30C), inhibitor only): Some increase in cell death
- effect of dynamin inhibitor on cetuximab-dependent ADCC of KJD cells (KJD cells [12]; FACS): improve cetuximab-dependent ADCC
- toxicity to PBMC (PBMC): showed single agent toxicity; also recorded: shows toxicity
